Assay results taken from paper PMC8466373, “Plant-Derived and Dietary Hydroxybenzoic Acids—A Comprehensive Study of Structural, Anti-/Pro-Oxidant, Lipophilic, Antimicrobial, and Cytotoxic Activity in MDA-MB-231 and MCF-7 Cell Lines” (Nutrients, 2021).
Values after ≈ are worked out from the molar mass of the structure shown. Values joined by “and” are separate entries in the source; they are usually repeats but may differ in a detail not shown here. Identical values can stand only once. Marks after values point to notes of the source that are not given here.

Tested on: not listed separately
Test: DPPH assay
Assay type: biochemical
Conditions: methanolic solutions, 60 min of reaction time
Experimental: DPPH assay was measured according to the method described by Rice-Evans. Appropriate volumes of methanolic solutions of the tested hydroxybenzoic acids (C = 30 μM) were mixed with methanol in test tubes to prepare a series of solutions of various concentrations (final volume 1 mL). Then, 2 mL of methanolic solution of DPPH^• (C = 60 μM) was added to each tube; the control contained methanol instead of the sample. The tubes with reaction mixtures were capped, vortexed, and left to stand for 60 min at 23 °C in the dark. The absorbance of the solutions was measured by the use of a Cary 5000 UV–Vis spectrophotometer (Santa Clara, CA, USA) at λ = 516 nm against pure methanol. […] The concentration of the tested hydroxybenzoic acids was plotted against the %I, and the IC50 values (antioxidant concentration that inhibited 50% of DPPH^• radicals) were calculated from the obtained scavenging curves.

| SMILES | IC50 [µM] |
| --- | --- |
| O=C(O)c1ccc(O)c(O)c1 [3,4-DHB, 3,4-dihydroxybenzoic acid] | 5.24 ± 0.95 |
| O=C(O)c1cc(O)cc(O)c1 [3,5-DHB, 3,5-dihydroxybenzoic acid] | > 1000 |
| O=C(O)c1cc(O)c(O)c(O)c1 [3,4,5-THB, 3,4,5-trihydroxybenzoic acid] | 2.42 ± 0.08 |

Tested on: Staphylococcus aureus (PCM 2267)
Test: MIC by serial dilution in agar medium
Assay type: cell-based
Conditions: not given
Experimental: (§1) The following bacterial strains were used in this study: Escherichia coli (PCM 2857), Pseudomonas aeruginosa (PCM 2720), Bacillus subtilis (PCM 2850), Staphylococcus aureus (PCM 2267), Salmonella enteritidis (NCTC 4776), and Candida albicans (PCM 2566-FY). The microbial strains were bought from the Polish Collection of Microorganisms (Wroclaw, Poland) or the American Type Culture Collection. Bacteria (0.1 mL of the reconstituted suspension) were seeded onto sterile Mueller–Hinton agar plates (Biomaxima), to which previously suitable amounts of the tested compounds were added to give the desired concentration.
(§2) The MIC (minimal inhibitory concentration) was determined by serial dilution of the tested compound in an agar medium, to which the appropriate inoculum of microorganisms was then added and incubated. Escherichia coli, Pseudomonas aeruginosa, Staphylococcus aureus, Bacillus subtilis, Salmonella enteritidis, and Candida albicans were grown overnight and then resuspended in physiological saline to an optical density at 600 nm (OD = 600) of 0.60, corresponding to 5.0 × 10^8 CFU/mL. Bacteria (0.1 mL of the reconstituted suspension) were seeded onto sterile Mueller–Hinton agar plates, to which previously suitable amounts of the tested compounds were added to reach the desired concentration. Tested chemicals were dissolved in DMSO solution. Negative controls were agar plates, to which DMSO was added, while positive controls were plates with gentamycin (in the case of bacteria) or flucanozole (in the case of fungi). The plates were incubated at 37 °C for 24 h. The lowest concentration without visible bacterial growth was determined as the MIC.

| SMILES | MIC [µg/mL] |
| --- | --- |
| O=C(O)c1ccc(O)c(O)c1 [3,4-DHB, 3,4-dihydroxybenzoic acid] | 2000 (≈ 13 mM) |

Same assay, conditions: read-out: MIC

| SMILES | MIC [µg/mL] |
| --- | --- |
| O=C(O)c1cc(O)cc(O)c1 [3,5-DHB, 3,5-dihydroxybenzoic acid] | 2000 (≈ 13 mM) |
| O=C(O)c1cc(O)c(O)c(O)c1 [3,4,5-THB, 3,4,5-trihydroxybenzoic acid] | 6000 (≈ 35.3 mM) |

Tested on: Escherichia coli (PCM 2857)
Test: MIC by serial dilution in agar medium
Assay type: cell-based
Conditions: not given
Experimental: as §1, §2

| SMILES | MIC [µg/mL] |
| --- | --- |
| O=C(O)c1ccc(O)c(O)c1 [3,4-DHB, 3,4-dihydroxybenzoic acid] | 2000 (≈ 13 mM) |

Same assay, conditions: read-out: MIC

| SMILES | MIC [µg/mL] |
| --- | --- |
| O=C(O)c1cc(O)cc(O)c1 [3,5-DHB, 3,5-dihydroxybenzoic acid] | 2000 (≈ 13 mM) |
| O=C(O)c1cc(O)c(O)c(O)c1 [3,4,5-THB, 3,4,5-trihydroxybenzoic acid] | 3000 (≈ 17.6 mM) |

Tested on: Pseudomonas aeruginosa (PCM 2720)
Test: MIC by serial dilution in agar medium
Assay type: cell-based
Conditions: not given
Experimental: as §1, §2

| SMILES | MIC [µg/mL] |
| --- | --- |
| O=C(O)c1ccc(O)c(O)c1 [3,4-DHB, 3,4-dihydroxybenzoic acid] | 2000 (≈ 13 mM) |

Same assay, conditions: read-out: MIC

| SMILES | MIC [µg/mL] |
| --- | --- |
| O=C(O)c1cc(O)cc(O)c1 [3,5-DHB, 3,5-dihydroxybenzoic acid] | 3000 (≈ 19.5 mM) |
| O=C(O)c1cc(O)c(O)c(O)c1 [3,4,5-THB, 3,4,5-trihydroxybenzoic acid] | 4000 (≈ 23.5 mM) |

Tested on: Bacillus subtilis (PCM 2850)
Test: MIC by serial dilution in agar medium
Assay type: cell-based
Conditions: not given
Experimental: as §1, §2

| SMILES | MIC [µg/mL] |
| --- | --- |
| O=C(O)c1ccc(O)c(O)c1 [3,4-DHB, 3,4-dihydroxybenzoic acid] | 2000 (≈ 13 mM) |

Same assay, conditions: read-out: MIC

| SMILES | MIC [µg/mL] |
| --- | --- |
| O=C(O)c1cc(O)cc(O)c1 [3,5-DHB, 3,5-dihydroxybenzoic acid] | 2000 (≈ 13 mM) |
| O=C(O)c1cc(O)c(O)c(O)c1 [3,4,5-THB, 3,4,5-trihydroxybenzoic acid] | 3000 (≈ 17.6 mM) |

Tested on: Candida albicans (PCM 2566-FY)
Test: MIC by serial dilution in agar medium
Assay type: cell-based
Conditions: not given
Experimental: as §1, §2

| SMILES | MIC [µg/mL] |
| --- | --- |
| O=C(O)c1ccc(O)c(O)c1 [3,4-DHB, 3,4-dihydroxybenzoic acid] | 2000 (≈ 13 mM) |

Same assay, conditions: read-out: MIC

| SMILES | MIC [µg/mL] |
| --- | --- |
| O=C(O)c1cc(O)cc(O)c1 [3,5-DHB, 3,5-dihydroxybenzoic acid] | 2000 (≈ 13 mM) |
| O=C(O)c1cc(O)c(O)c(O)c1 [3,4,5-THB, 3,4,5-trihydroxybenzoic acid] | 3000 (≈ 17.6 mM) |

Tested on: not listed separately
Test: FRAP assay (ferric-reducing antioxidant power)
Assay type: biochemical
Parameters: key: (-): Negative values were obtained for these acids
Conditions: concentration of 50 μM, methanolic solutions
Experimental: FRAP assay was carried out as described in [42]. […] After 8 min of incubation at 23 °C, the absorbance at 595 nm was measured against the blank (containing 0.4 mL of methanol instead of the sample). Ferric-reducing antioxidant activity was expressed as Fe(II) ion equivalents (μM) using the calibration curve obtained for FeSO4 (the standard curve equation: y = 3.4303x − 0.1058; R^2 = 0.9984).

| SMILES | FRAP |
| --- | --- |
| O=C(O)c1ccc(O)c(O)c1 [3,4-DHB, 3,4-dihydroxybenzoic acid] | 44.22 µM Fe^2+ and 44.22 ± 9.38 µM Fe^2+ |
| O=C(O)c1cc(O)cc(O)c1 [3,5-DHB, 3,5-dihydroxybenzoic acid] | (-) * |
| O=C(O)c1cc(O)c(O)c(O)c1 [3,4,5-THB, 3,4,5-trihydroxybenzoic acid] | 158.10 µM Fe^2+ and 158.10 ± 14.81 µM Fe^2+ |

Tested on: not listed separately
Test: Pro-oxidant activity, Trolox oxidation assay
Assay type: biochemical
Conditions: after 120 min of incubation, concentrations of 35 μM
Experimental: The pro-oxidant activity was expressed as the rate of Trolox oxidation according to the protocol described in [45]. First, a mixture of 0.5 mL of Trolox (C = 0.4 mM; in water) with 0.5 mL of H2O2 (C = 0.2 mM; in water), 0.5 mL of HRP (C = 0.04 μM; in phosphate buffer; pH = 7), 5 μL of the tested compounds (C = 50 μM; in methanol), and […] of distilled water was prepared as the tested sample. […] The control contained methanol instead of the tested substance.

| SMILES | degree of Trolox oxidation [%] |
| --- | --- |
| O=C(O)c1ccc(O)c(O)c1 [3,4-DHB, 3,4-dihydroxybenzoic acid] | 8.44 |
| O=C(O)c1cc(O)cc(O)c1 [3,5-DHB, 3,5-dihydroxybenzoic acid] | 8.03 |

Tested on: not listed separately
Test: ABTS assay
Assay type: biochemical
Conditions: 50 μM, methanolic solutions, 7 min of reaction time
Experimental: ABTS assay was conducted according to the procedure of Re et al.. […] The absorbance of the solutions was measured with a UV–Vis spectrophotometer at 734 nm against methanol (the blank). The ability to scavenge ABTS^•+ cation radicals was expressed as the %I of ABTS^•+ and calculated according to the aforementioned equation.

| SMILES | Inhibition of ABTS•+ radicals (%I) [%] |
| --- | --- |
| O=C(O)c1ccc(O)c(O)c1 [3,4-DHB, 3,4-dihydroxybenzoic acid] | 74.51 |
| O=C(O)c1cc(O)cc(O)c1 [3,5-DHB, 3,5-dihydroxybenzoic acid] | 60.39 |
| O=C(O)c1cc(O)c(O)c(O)c1 [3,4,5-THB, 3,4,5-trihydroxybenzoic acid] | 79.50 |

Tested on: not listed separately
Test: Cytotoxicity, neutral red (NR) assay
Assay type: cell-based, human
Conditions: human, MCF-7 cells (breast adenocarcinoma); 48 h treatment, neutral red assay; read-out: Cytotoxicity (mM) in Cell Line MCF-7, IC50
Experimental: Briefly, MCF-7 cells were cultured in EMEM (Biological Industries, Israel) medium supplemented with 10% fetal calf serum (Gibco). MDA-MB-231 cells were cultured in Leibovitz‘s L15 (Biological Industries, Beit HaEmek, Israel) medium supplemented with 10% fetal calf serum (Gibco). The MCF-7 cells were incubated in a 5% CO2 atmosphere at 37 °C, whereas the MDA-231 cells were incubated in a 100% air atmosphere at 37 °C.
Cytotoxicity evaluation was conducted to assess the impact of hydroxybenzoic acids on the proliferation of MCF-7 and MDA-MB-231 cells, which was measured via neutral red (NR) assay. In brief, cells were seeded in 96-well microplates (TPP, Switzerland) at a density of 2 × 10^4 cells/well in 100 μL of culture medium. At least three independent experiments in six replicate wells were conducted per concentration. Twenty-four hours after cell seeding, cells were treated with increasing concentrations of hydroxybenzoic acids (0.02–5 mM) for forty-eight hours. After treatment, cells were incubated for 3 h at 37 °C with 100 µL of neutral red solution (stock solution of NR) (Sigma-Aldrich), and then 5 mg/mL of PBS was diluted 1:100 in cell culture medium, incubated for 12 h at 37 °C, and centrifuged to remove any undissolved NR powder. […] After 15 min of gentle shaking, optical density was read at 540 nm with an Infinite M200 plate reader spectrophotometer (Tecan, Austria).

| SMILES | IC50 at 48 h [mM] |
| --- | --- |
| O=C(O)c1cc(O)cc(O)c1 [3,5-DHB, 3,5-dihydroxybenzoic acid] | > 5 |

Same assay, conditions: human, MDA-MB-231 cells (breast adenocarcinoma); 48 h treatment, neutral red assay; read-out: Cytotoxicity (mM) in Cell Line MDA-MB-231, IC50

| SMILES | IC50 at 48 h [mM] |
| --- | --- |
| O=C(O)c1cc(O)cc(O)c1 [3,5-DHB, 3,5-dihydroxybenzoic acid] | > 5 |

Same assay, conditions: human; 48 h treatment, neutral red assay; read-out: Cytotoxicity (mM) in Cell Line MCF-7, IC50

| SMILES | IC50 at 48 h [mM] |
| --- | --- |
| O=C(O)c1ccc(O)c(O)c1 [3,4-DHB, 3,4-dihydroxybenzoic acid] | > 5 |
| O=C(O)c1cc(O)c(O)c(O)c1 [3,4,5-THB, 3,4,5-trihydroxybenzoic acid] | 0.44 |

Same assay, conditions: human; 48 h treatment, neutral red assay; read-out: Cytotoxicity (mM) in Cell Line MDA-MB-231, IC50

| SMILES | IC50 at 48 h [mM] |
| --- | --- |
| O=C(O)c1ccc(O)c(O)c1 [3,4-DHB, 3,4-dihydroxybenzoic acid] | > 5 |
| O=C(O)c1cc(O)c(O)c(O)c1 [3,4,5-THB, 3,4,5-trihydroxybenzoic acid] | 0.36 |

Tested on: not listed separately
Test: CUPRAC assay (cupric-reducing antioxidant capacity)
Assay type: biochemical
Conditions: concentration of 50 μM, methanolic solutions
Experimental: CUPRAC assay was carried out according to the method described in [44]. First, […] of CuCl2 (C = 10 mM; in water) was mixed with […] of ammonium acetate (pH 7; in water) and neocuproine (C = 75 mM; in ethanol). […] The samples were mixed and incubated for 60 min at room temperature (23 °C). The absorbance of the samples was measured with a UV–Vis spectrophotometer at λ = 450 nm against a blank (containing 0.5 mL of methanol instead of the sample). […] R^2 = 0.9919).

| SMILES | CUPRAC assay: Trolox equivalent [µM] |
| --- | --- |
| O=C(O)c1ccc(O)c(O)c1 [3,4-DHB, 3,4-dihydroxybenzoic acid] | 60.53 |
| O=C(O)c1cc(O)c(O)c(O)c1 [3,4,5-THB, 3,4,5-trihydroxybenzoic acid] | 73.85 |
